Measured values reported in patent publication US20240245702A1, “Inhibition of Lysine Demethylase 1 (Lsd1) Induces Differentiation of Hair Cells” (Massachusetts Eye and Ear Infirmary, priority 2018, published 2024).

Tests used:
Format in all cases: cell-based, mouse
LCPs = assay: RNA sequencing of LCP organoids with and without pargyline
Experimental: RNA sequencing. After RNA extractions were performed using the RNeasy Micro Kit (QIAGEN), the library preparation and RNA-sequencing was performed at the Dana Farber Cancer Institute Molecular Biology Core Facility. In brief, cDNA was synthesized from 2.5 ng of RNA using SMARTer V4 Kit (Clontech). Following fragmentation using M220 Focused-Ultrasonicator (Covaris), 2 ng of sheared cDNA was taken for library preparation using ThruPLEX DNA-seq kit (Rubicon Genomics). NextSeq500 Single-End 75 bp (SE75) Sequencing (Illumina) was performed on all 12 samples in one lane after they were indexed and pooled in equimolar to ensure 20-30 million reads per sample. Reads were aligned to mm10 augmented with Ensembl gene build 75 with STAR v2.5.2b (Dobin et al., 2013). Reads and alignments were assessed for quality using FastQC. Differential expression was evaluated using DESeq2. Genes were called differentially expressed when the absolute value of the fold change was >1.25 and FDR, was smaller than 0.05. Subsequent pathway analysis was performed using Ingenuity Pathway Analysis software (Qiagen).
The effect of pargyline on the differentiation of hair cells could be broad and we therefore evaluated its effect on the gene expression patterns of Lsd1 inhibitor-treated and untreated samples. The samples analyzed included the undifferentiated organoids following expansion (DO) and the differentiated organoids following 10 days of differentiation, with and without pargyline treatment (D10). […] In addition, 90% of the genes aligned to the genome and over 22,000 genes were detected in each sample. […] The times here refer to the beginning and end of differentiation and the finding was that most of the difference between samples was due to the 10 days of differentiation. Consistently, the principle component analysis (PCA) clustered the samples by the time of differentiation (responsible for 62% of the variation between samples) and the treatment (20% of the variation: FIG. 10B). Lsd1 inhibition in the presence of CHIR99021 altered gene expression and caused the pargyline-treated samples to cluster separately from those treated with CHIR99021 alone.
Differential expression analysis of the samples was also performed using DESeq2 (Love et al., 2014). […] We further compared the gene expression profiles of the samples. Compared to the undifferentiated (DO), approximately […]) and 3365 genes were differentially expressed in the D10 or D10+pargyline samples, respectively. The addition of pargyline compared to the untreated samples altered the expression of approximately 474 genes (padj<0.05, fold change >1.25).
Gene set enrichment analysis (GSEA) using gene sets associated with biological process gene ontology terms (Subramanian et al., 2005) was next performed to gain insight into the relevant pathways altered in this dataset. The analysis accounts for coordinated differential expression over pre-defined gene sets, instead of changes in individual genes. Pathways related to the cell cycle and proliferation were the most enriched after pargyline treatment, particularly the p53 and PI3/AKT, MAPK and RAS pathways (−0.503, −0.33). although these cells were in the differentiation phase. […] Here we present the top 15 differentially expressed hair cell receptor genes. […] Collectively, these findings corroborate increasing hair cell differentiation with Lsd1 inhibition.

Atoh1-nGFP cells = assay: Hair cell differentiation of LCP organoids, FACS for Atoh1-nGFP cells; settings: 10 days of differentiation (D10), standard differentiation treatment (CHIR99021 and LY411575) without or with pargyline
Experimental: Differentiation of LCPs into a hair cell lineage. […] To analyze the effect of the Lsd1 inhibitors, the LCPs were treated with the small molecules combined with a differentiation drug cocktail, pargyline and CHIR99021 or CHIR99021 at 1, 2, 4, and 10 days (McLean et al., 2017).
(§1) For the drug screening experiments, the expanded cells were passaged into a 96 well plate to test varying drug combinations. All experiments were done in triplicate at minimum. Atoh1-nGFP cells were quantified after 10 days in culture. The cell colonies were incubated in Cell Recovery Solution for 1 hour and dissociated into single cells using TrypleE. The total cell number and percentage of GFP+ cells were quantified using fluorescence activated cell sorting (FACS).
We next tested the effect of Lsd1 inhibition on hair cell differentiation. In this assay, after the cells were expanded into organoids during the initial proliferation phase, differentiation was initiated using the combination of CHIR99021 and LY411575 and allowed to progress for 10 days (DO to D10). Organoids were monitored for the development of hair cells using FACS and qRT-PCR. […] Conversely, Myo7a expression increases throughout development and is a key marker of mature hair cells. All hair cell markers tested were elevated with the exception of Atoh1, which had begun to decrease 10 days after the initiation of differentiation.

[1] = tested on: Lgr5-expressing cochlear progenitors cells (LCPs); assay: Proliferation of Lgr5+ cochlear progenitors (LCPs) in organoid culture; settings: first 10 days in culture, Lgr5-nGFP mice cells, combined with CHIR99021
Experimental: Isolation and expansion of inner ear Lgr5+ cells. A recently published protocol was used to derive organoids from inner ear stem cells [also referred to as Lgr5+ cochlear progenitors (LCPs) (McLean et al., 2017). Briefly, the organ of Corti was dissected from neonatal mice (postnatal days 2-5) in Hank's balanced salt solution and treated with Cell Recovery Solution (Corning) for 1 hour. The cochlear epithelium was then peeled from the underlying mesenchyme, collected and treated with TrypleE for 20 minutes at 37° C. The single cells were mechanically triturated, filtered ([…] cell strainer) and suspended in a Matrigel (Corning) dome for 3D culture. The cells were seeded in a 24-well plate, specifically at one cochlea per well of a 24-well plate.
as §1
We screened a collection of Lsd1 inhibitors over the first 10 days in culture (FIGS. 9A and 9B) to examine their effect on proliferation of LCPs (FIGS. 9C and 9D). […]

[2] = D10 with pargyline compared to untreated
[3] = pargyline-treated samples, p<0.05

**Q.** `C#CCN(C)Cc1ccccc1` [pargyline, N-Methyl-N-propargylbenzylamine] was tested. Which “genes differentially expressed compared to the undifferentiated (D0)” value (LCPs; D10+pargyline samples versus D0) did it give?
**A.** ~3365 genes

**Q.** And the genes downregulated (LCPs; [2])?
**A.** 330 genes

**Q.** And the genes upregulated (LCPs; [2])?
**A.** 144 genes

**Q.** What about the “genes with altered expression” value (LCPs; D10 with pargyline compared to untreated, padj<0.05, fold change >1.25) of the same compound?
**A.** approximately 474 genes

**Q.** What about the “gene set enrichment score, development of auditory receptors (GO:0060117)” value (LCPs; GSEA after pargyline treatment, p<0.1) of the same compound?
**A.** 0.62

**Q.** What about the “top 15 differentially expressed Wnt target genes: number downregulated” value (LCPs; [3]) of the same compound?
**A.** 13 genes

**Q.** What about the “top 15 differentially expressed Wnt target genes: number upregulated” value (LCPs; [3]) of the same compound?
**A.** 2 genes

**Q.** What about the “percentage of Atoh1-nGFP cells in culture” value (Atoh1-nGFP cells) of the same compound?
**A.** 39%

**Q.** And the “proliferation of Lgr5 cells (LCP cell division)” value [1]?
**A.** 26%
